Laboratory results published in patent publication US20100058650A1, “HYDROXYMETHYLFURFURAL ETHERS FROM SUGARS OR HMF AND MIXED ALCOHOLS” (FURANIX TECHNOLOGIES B.V., priority 2007, published 2010).

Assay: Fuel solubility: miscibility of blends with commercial diesel
Assay type: physicochemical
Text: Fuel solubility is a primary concern for diesel fuel applications. Not all highly polar oxygenates have good solubility in the current commercial diesel fuels.

Miscibility of blend with commercial diesel (5 vol % blend with commercial diesel): completely miscible
Miscibility of blend with commercial diesel (25 vol % blend with commercial diesel): phase separation occurs
Miscibility of blend with commercial diesel (40 vol % blend with commercial diesel): phase separation occurs
Structure (SMILES): CCOCc1ccc(C=O)o1 [EMF, 5-(ethoxymethyl)furfural]
